For one experiment, the target named is T1, human CB2 receptor (Homo sapiens, UniProt P34972).
T1 construct: expressed in transfected cells; host or cells: CHO cells (membrane fraction)
Kind of experiment: [3H]-CP55,940 binding inhibition assay, CHO cell membrane fraction expressing human CB2 receptor. The method, then: (§1) [^3H]-CP55,940 binding assay with a cell membrane fraction expressing human CB1 and CB2 receptor
(§2) [^3H]-CP55940 binding inhibition assay was conducted by incubating a CHO cell membrane fraction expressing human CB1 receptor and the test compound and 500 pM [^3H]-CP55940 in reaction buffer (50 mM Tris-HCl (pH7.4), 5 mM MgCl2, 2.5 mM EDTA and 0.5% BSA (fatty acid free)) at room temperature for 60 minutes. The reaction solution was filtered through GF/C filter, washed with 300 μl of washing buffer (50 mM Tris-HCl (pH7.4), 0.05% BSA (fatty acid free)) four times, and the radioactivity of the filter was measured with a Top Count scintillation counter (Packard). As results, the test compound has inhibited binding of [^3H]-CP55940 to the membrane fraction dose-dependently.
(§3) The inhibitory activity of the test compound to [^3H]-CP55940 binding was calculated by percent on the basis that radioactivity is 100% when only 500 pM [^3H]-CP55940 was added, and 0% when 500 pM [^3H]-CP55940 and 100 nM CP55940 were added at the same time. Further, IC50 value of the test compound was calculated by analyzing concentrations and percents of the test compound with PRISM 3.0 (Graphpad Software, Inc.).
The same assay was also conducted for a CHO cell membrane fraction expressing human CB2 receptor, and the inhibitory activity to [^3H]-CP55940 binding was calculated.

The next experiment has as its target T2, human CB1 receptor (Homo sapiens, UniProt P21554).
T2 construct: expressed in transfected cells; host or cells: CHO cells (membrane fraction)
Kind of experiment: [3H]-CP55,940 binding inhibition assay, CHO cell membrane fraction expressing human CB1 receptor. The method, then:
as §1, §2, §3

The next experiment deals with T3, CB1 receptor (Mus musculus, UniProt P47746).
T3 construct: from tissue; host or cells: whole animal, Jcl: ICR male mice
Kind of experiment: Body temperature-lowering action on mouse (CB1 receptor agonistic activity in vivo). The note with it: Jcl: ICR male mice, 1 mg/kg i.p., rectal temperature 30 minutes after administration, compared with control group. As to the method: Body temperature-lowering action on mouse
CB1 receptor agonistic activity of the compound of the present invention in vivo was evaluated by investigating the effect on the body temperature of mouse after the drug was administered to the mouse. In this experiment, Jcl: ICR male mice (5 weeks old) were used. After measuring the rectal temperature with a thermometer (Physitemp BAT-12) that was connected to a probe for measuring body temperature, the compound dissolved in 2.2% EtOH and 5% G2-β-cyclodextrin (solvent) was administered intraperitoneally. Solvent only was administered to the control group. 30 minutes after administration, rectal temperature was measured again. The experiment was conducted for 4 subjects per a group.

T1 sequence (P34972 whole entry): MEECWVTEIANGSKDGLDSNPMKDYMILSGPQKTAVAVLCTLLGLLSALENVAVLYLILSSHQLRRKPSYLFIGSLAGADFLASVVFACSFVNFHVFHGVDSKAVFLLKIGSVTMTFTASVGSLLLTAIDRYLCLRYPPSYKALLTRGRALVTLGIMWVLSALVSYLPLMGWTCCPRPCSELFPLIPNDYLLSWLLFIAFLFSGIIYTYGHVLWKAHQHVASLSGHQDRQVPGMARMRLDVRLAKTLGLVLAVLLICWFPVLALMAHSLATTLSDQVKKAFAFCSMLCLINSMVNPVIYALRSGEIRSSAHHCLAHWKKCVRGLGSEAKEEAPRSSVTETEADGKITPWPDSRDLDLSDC
T2 sequence (P21554 whole entry): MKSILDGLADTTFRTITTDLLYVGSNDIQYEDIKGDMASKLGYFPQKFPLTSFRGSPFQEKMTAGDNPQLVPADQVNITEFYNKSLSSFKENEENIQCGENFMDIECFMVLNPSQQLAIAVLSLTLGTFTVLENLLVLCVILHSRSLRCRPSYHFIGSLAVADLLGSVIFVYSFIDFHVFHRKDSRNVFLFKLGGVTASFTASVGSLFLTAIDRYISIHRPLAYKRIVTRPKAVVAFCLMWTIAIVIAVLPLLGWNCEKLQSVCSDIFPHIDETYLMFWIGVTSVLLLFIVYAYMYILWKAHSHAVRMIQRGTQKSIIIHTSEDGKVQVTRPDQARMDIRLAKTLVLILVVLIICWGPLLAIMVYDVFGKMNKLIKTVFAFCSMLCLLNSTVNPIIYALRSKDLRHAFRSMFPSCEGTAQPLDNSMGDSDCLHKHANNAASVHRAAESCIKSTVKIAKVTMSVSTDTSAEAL
T3 sequence (P47746 whole entry): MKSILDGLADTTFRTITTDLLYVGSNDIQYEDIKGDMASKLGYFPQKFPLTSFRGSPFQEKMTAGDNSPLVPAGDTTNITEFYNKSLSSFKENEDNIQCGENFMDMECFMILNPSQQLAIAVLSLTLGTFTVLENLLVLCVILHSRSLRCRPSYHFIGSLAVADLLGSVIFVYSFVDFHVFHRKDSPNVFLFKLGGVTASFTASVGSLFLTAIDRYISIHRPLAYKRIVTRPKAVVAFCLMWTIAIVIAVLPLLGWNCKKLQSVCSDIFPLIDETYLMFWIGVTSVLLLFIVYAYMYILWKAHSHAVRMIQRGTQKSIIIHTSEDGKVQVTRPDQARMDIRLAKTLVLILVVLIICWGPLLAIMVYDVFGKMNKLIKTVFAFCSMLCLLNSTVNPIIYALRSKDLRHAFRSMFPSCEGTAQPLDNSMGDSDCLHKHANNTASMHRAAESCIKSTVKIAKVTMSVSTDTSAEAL

With `COc1c(C)c(NC(=O)CC(C)(C)C)c(C)c2c1OCC2c1ccc(C(C)C)cc1` (stereo not drawn) [Example 36, N-(3-(4-Isopropylphenyl)-7-methoxy-4,6-dimethyl-2,3-dihydro-1-benzofuran-5-yl)-3,3-dimethylbutanamide], the IC50 at human CB2 receptor and on human CB1 receptor was less than 10 nM throughout. The “Test Results (body temperature-lowering action)” value at CB1 receptor is “Effective (estimated as effective if the compound of the present invention lowered the body temperature substantially by 1 °C or more when compared with the control group 30 minutes after administration of 1 mg/kg, i.p.)”.

For the origin of these results see US7465815B2, “Cannabinoid receptor modulator” (priority 2003, dated 2008).
